Laboratory results reported in ChEMBL document CHEMBL1857833, “Screening and optimization of specific chemical series against human African Trypanosomiasis (HAT)”.
Converted amounts (≈) assume the structure as drawn. “And” between values parts separate entries of the source, which are not always exact repeats. Identical values can stand only once.

Key:
Trypanosoma brucei [1] = test: DNDI: Inhibition of Human African Trypanosomiasis, SBRI 427, in vitro; assay type: functional, organism-based
[2] = DNDI: Cytotoxicity against L929 mouse fibroblasts, CYTO-SP, 24 hour; assay type: toxicity, cell-based; settings: mouse, L929 mouse fibroblasts
Trypanosoma brucei [3] = test: DNDI: Inhibition of Human African Trypanosomiasis, EATRO 110, in vitro; assay type: functional, organism-based
[4] = DNDI: Lipophilicity measured in Chromatographic hydrophobicity index (CHI) assay, pH 7.4; assay type: physicochemical; settings: buffer
[5] = DNDI: half life in mouse liver microsomes at a concentration of 10uM; assay type: ADME, Microsome
Trypanosoma cruzi = test: DNDI: Inhibition of Chagas Disease parasite Trypanosoma cruzi (Tulahuen LacZ, Clone C4), in vitro.; assay type: functional, organism-based
[6] = DNDI: Solubility in phosphate buffered saline at pH7.4 measured by optical density (turbidimetry) at room temperature (OD-RT); assay type: physicochemical; settings: pH 7.4
Leishmania donovani = test: DNDI: Inhibition of formation of Leishmania donovani (strain MHOM/ET/67/L82) axenic amastigotes, in vitro.; assay type: functional, organism-based
[7] = DNDI: Cytotoxicity against L929 mouse fibroblasts, 72 hour.; assay type: toxicity, cell-based; settings: mouse, L929 mouse fibroblasts
[8] = DNDI: Cytotoxicity against L-6 rat myoblasts from skeletal muscle cells; assay type: toxicity, cell-based, L6; settings: L-6 rat skeletal muscle myoblasts
[9] = DNDI: in vitro intrinsic clearance in mouse liver microsomes at a concentration of 10uM; assay type: ADME, Microsome; settings: read-out: CLint in vitro
[10] = DNDI: in vitro intrinsic clearance in human liver microsomes at a concentration of 10uM; assay type: ADME, Microsome
[11] = DNDI: half life in human liver microsomes at a concentration of 10uM; assay type: ADME, Microsome
[12] = system: Trypanosoma brucei rhodesiense; test: DNDI: Inhibition of Human African Trypanosomiasis (HAT), STIB 900, in vitro; assay type: functional, organism-based
Plasmodium falciparum = test: DNDI: Inhibition of the malaria parasite Plasmodium falciparum, in vitro; assay type: functional, organism-based; settings: K1
[13] = mouse, microsomes, 1 µM
Description: DNDI: in vitro intrinsic clearance in mouse liver microsomes at a concentration of 1uM

in vitro [14] = settings: human, liver microsomes, CLint in vitro
Description: DNDI: in vitro intrinsic clearance in human liver microsomes at a concentration of 1uM

in vitro [15] = settings: mouse, t (1 / 2)
Description: DNDI: half life in mouse liver microsomes at a concentration of 1uM

in vitro [16] = settings: human, liver microsomes, t (1 / 2)
Description: DNDI: half life in human liver microsomes at a concentration of 1uM

[17] = DNDI: Solubility in phosphate buffered saline at pH7.4 measured by nephelometry at room temperature (NEPH-RT); assay type: physicochemical; settings: pH 7.4
Trypanosoma brucei [18] = test: DNDI: Inhibition of Human African Trypanosomiasis, Cross 22, in vitro; assay type: functional, organism-based
Trypanosoma brucei [19] = test: DNDI: Mean survival time in days (MSD) of mice after intraperitoneal injection of Human African Trypanosomiasis (HAT), EATRO 110, in vivo at 20 mg/kg/day for 4 days.; assay type: functional, Mus musculus
[20] = Trypanosoma brucei, SBRI 427, read-out: IC50

IC50 (Trypanosoma brucei [1]; [20]) [µg/mL] | IC50 (Trypanosoma brucei [3]) [µg/mL] | chromatographic logD [4] | half-life at 10 µM [5] [h] | IC50 (Trypanosoma cruzi) [µg/mL] | solubility kinetic [6] [µM] | IC50 (Leishmania donovani) [µg/mL] | microsomal CLint at 10 µM [9] [µL/min/mg] | CLint in vitro [10] [µL/min/mg] | half-life at 10 µM [11] [h] | IC50 [12] [µg/mL] | IC50 (Plasmodium falciparum) [µg/mL] | Compound | IC50 at 24 h [2] [µg/mL] | IC50 at 72 h [7] [µg/mL] | IC50 [8] [µg/mL] | also measured
1.13 (≈ 2.9 µM) | 1.56 (≈ 4 µM) | – | – | – | – | – | – | – | – | – | – | O/N=C(\NC1CCCCC1)c1cccnc1Oc1ccccc1Br | > 50 | – | – | –
2.13 (≈ 7.04 µM) | – | 4.16 | 3.17 | 2.9 (≈ 9.59 µM) | 6.3 (≈ 1.91 µg/mL) | 12.4 (≈ 41.1 µM) | 15 | 44 | 1.1 | 1.06 (≈ 3.51 µM) | 1.77 (≈ 5.85 µM) | CCCCCC(C)NCc1coc(-c2ccc(OC)cc2)n1 (centres undefined) | 33 (≈ 109 µM) | > 10 | 16 (≈ 53 µM) | –
0.79 (≈ 2.33 µM) | 2.15 (≈ 6.33 µM) | 4.31 | 0.35 | – | 6.3 (≈ 2.14 µg/mL) | – | 140 | 27 | 1.77 | – | – | CCc1ccccc1Oc1ncccc1/C(=N\O)NC1CCCCC1 | > 50 | – | – | –
3.96 (≈ 14.8 µM) | – | 4.43 | – | – | – | – | – | – | – | – | – | O/N=C(/NC1CCCCC1)c1cccc2ccccc12 | > 50 | – | – | CLint in vitro [13]: 168 µL/min/mg; microsomal CLint at 1 µM (in vitro [14]): 12 µL/min/mg; half-life at 1 µM (in vitro [15]; liver microsomes): 5 min; half-life at 1 µM (in vitro [16]): 1.15 h; solubility kinetic [17]: 50 µM (≈ 13.4 µg/mL)
1.17 (≈ 4.17 µM) | – | 4.3 | 0.2 | 21.4 (≈ 76.3 µM) | 50 (≈ 14 µg/mL) | 53.1 (≈ 189 µM) | 243 | 11 | 4.33 | 18.5 (≈ 66 µM) | 2.57 (≈ 9.17 µM) | O/N=C(\NC1CCCC1)c1ccccc1-c1ccccc1 | > 50 | > 10 | > 90 | –
1.7 (≈ 5.54 µM) | – | 5.02 | 2.88 | 11.3 (≈ 36.8 µM) | 6.3 (≈ 1.93 µg/mL) | 18.7 (≈ 60.8 µM) | 17 | – | – | 0.478 (≈ 1.56 µM) | 2.6 (≈ 8.47 µM) | CCCCCC(C)NCc1coc(-c2ccc(Cl)cc2)n1 (centres undefined) | 17 (≈ 55.4 µM) | 4.88 (≈ 15.9 µM) | 10.9 (≈ 35.4 µM) | IC50 (Trypanosoma brucei [18]): 1.54 µg/mL (≈ 5.02 µM); IC50 (Trypanosoma brucei [1]): 0.95 µg/mL and 1.02 µg/mL
0.58 (≈ 1.76 µM) | 1.5 (≈ 4.55 µM) | 3.99 | 0.167 | > 30 | 50 (≈ 16.5 µg/mL) | 19.9 (≈ 60.5 µM) | 275 | 16 | 3.08 | 20.8 (≈ 63.1 µM) | > 5 | O/N=C(/NC1CCCCC1)c1cccnc1Oc1ccccc1F | > 50 | > 10 | 54.3 (≈ 165 µM) | –
0.62 (≈ 1.73 µM) | 1.34 (≈ 3.75 µM) | – | – | – | – | – | – | – | – | – | – | CSc1ccccc1Oc1ncccc1/C(=N\O)NC1CCCCC1 | > 50 | – | – | –
0.92 (≈ 4.21 µM) | – | 3.9 | 0.583 | > 30 | > 200 | 40.9 (≈ 187 µM) | 82 | 10 | 4.82 | 13.6 (≈ 62.3 µM) | > 5 | O/N=C(\NC1CCCCC1)c1ccccc1 | 50 (≈ 229 µM) | > 10 | 49.7 (≈ 227 µM) | CLint in vitro [13]: 111 µL/min/mg; half-life at 1 µM (in vitro [15]; microsomes): 8 min
0.62 (≈ 2 µM) | – | 4.43 | 0.0667 | > 30 | 100 (≈ 31 µg/mL) | 73.4 (≈ 236 µM) | 767 | 45 | 1.07 | 62.6 (≈ 202 µM) | 4.41 (≈ 14.2 µM) | O/N=C(\NC1CCCCC1)c1ccccc1Oc1ccccc1 | > 50 | > 10 | > 90 | –
0.66 (≈ 2.35 µM) | – | 4.2 | 0.383 | – | 12.5 (≈ 3.52 µg/mL) | – | 126 | 25 | 1.9 | – | – | CCCCCC(C)NCc1ccc(-c2ccccc2)cc1 (centres undefined) | > 50 | < 3.13 | – | –

Compound | IC50 (Trypanosoma brucei [1]; [20]) [µg/mL] | IC50 (Trypanosoma brucei [3]) [µg/mL] | chromatographic logD [4] | half-life at 10 µM [5] [h] | IC50 (Trypanosoma cruzi) [µg/mL] | solubility kinetic [6] [µM] | IC50 (Leishmania donovani) [µg/mL] | microsomal CLint at 10 µM [9] [µL/min/mg] | CLint in vitro [10] [µL/min/mg] | half-life at 10 µM [11] [h] | IC50 [12] [µg/mL] | IC50 (Plasmodium falciparum) [µg/mL] | IC50 at 24 h [2] [µg/mL] | IC50 at 72 h [7] [µg/mL] | IC50 [8] [µg/mL] | also measured
COc1cccc(/C(=N/O)NC2CCCCC2)c1 | 0.57 (≈ 2.3 µM) | – | 3.84 | 0.117 | > 30 | 100 (≈ 24.8 µg/mL) | 34 (≈ 137 µM) | 421 | 13 | 3.65 | 14.4 (≈ 58 µM) | 4.4 (≈ 17.7 µM) | > 50 | > 10 | 63.3 (≈ 255 µM) | MSD (Trypanosoma brucei [19]): 4 days
